Assay results from paper PMC7247319, “The mitochondria-targeted peptide SS-31 binds lipid bilayers and modulates surface electrostatics as a key component of its mechanism of action” (The Journal of Biological Chemistry, 2020).
Where a SMILES comes first, the peptide text is derived from it. [ ]: non-standard residue; d: D form. Dmt = Cc1cc(O)cc(C)c1C[C@H](N)C(=O)O

Tested on: isolated mitochondria
Test: 31P ssNMR of mitochondrial membrane integrity under calcium stress
Parameters: species or system S. cerevisiae
Description: Figure 7. SS peptide effects on Ca^2+-membrane interactions and mitochondrial cation stress. A, profiles of surface potential decay (top) and ion distribution (bottom) based on GCS theory in the presence or absence of SS-31 (see supporting Results H for model description). B, effect of SS peptides on Ca^2+ accumulation at model membrane interfaces. Time course measurements of CG-5N emission were performed in solutions with LUVs (20 mol % TOCL in host POPC background, [lipid]^eff = 100 μM) prebound with SS peptide at the indicated concentration followed by titration of CaCl2 in increments of 1 nmol at 20-s intervals starting at t = 60 s. C and D, effect of SS peptides on mitochondrial Ca^2+ uptake. […] Spectral deconvolution yielded the indicated components (see Fig. S19, A and B), which were used to quantify the area ratios of L2/iso in F (values shown are means ± S.D. (error bars) (n = 3). G, respirometry analysis. Mitochondria (1 mg ml^−1) were treated in the absence or presence of SS-31 (54.4 μM) or CaCl2 (1 mM) as indicated and measured for state 2 respiration (n = 10–12 each).
Finally, we measured the effects of SS peptides on mitochondrial calcium stress that may occur independently of Ca^2+ uptake into the matrix. […] To corroborate these findings, we measured mitochondrial oxygen consumption rates under similar conditions of SS peptide treatment and calcium stress. […]

## Cc1cc(O)cc(C)c1C[C@H](NC(=O)[C@H](N)CCCNC(=N)N)C(=O)N[C@@H](CCCCN)C(=O)N[C@@H](Cc1ccccc1)C(N)=O [SS-31, D-Arg-2′6′-dimethyl-Tyr-Lys-Phe-NH2] (H-[dR][Dmt]KF-NH2)
Acute treatment 8.5 nmol of peptide/mg of mitochondrial protein (0.6 mM, 70 mg ml^−1), up to 5 mM CaCl2, 4 °C
  effect on NMR-detected membrane degradation caused by high calcium load: reduced NMR-detected membrane degradation
Spectral deconvolution, 5 mM CaCl2, n = 3
  effect on L2 peak (lamellar phospholipid bilayers), L2/iso area ratio: significant preservation of the L2 peak
